By IC50 is commonly meant the midpoint of a concentration-inhibition curve.

The source of these data is patent US20110124634A1, “BIOACTIVE COMPOUNDS FOR TREATMENT OF CANCER AND NEURODEGENERATIVE DISEASES” (PONIARD PHARMACEUTICALS, INC., priority 2008, published 2011).

The structures appear in SMILES notation. Bounds are passed on as bounds.

Holding throughout (format): cell-based
One test has as its system SKBR-3. Description: MTS assay (cytotoxicity), growth inhibition of SKBR-3. The settings on record: Homo sapiens, SK-BR-3, 120 h, Table 5, series III, 5 days, read-out: Growth Inhibition (IC50) SKBR-3. On the procedure:
(§1) Cells were seeded in 96-well plates at 2000 cells/well in a final culture volume of 100 ul for 24 hours before the addition of 25 ul of increasing concentrations of inhibitors that was incubated for 5 days. Viable cell number was determined using the CellTiter 96 AQueous One Solution Cell Proliferation Assay (Promega). Plates were read at 490 nm absorbance 2-4 hours after addition of the MTS reagent using a multiwell plate spectrophotometer. Background was determined by measuring the Abs 490 nm of cell culture medium and MTS in the absence of cells. The background value was subtracted from all values. Absorbance 490 nm values for each inhibitor were plotted against the log 10 inhibitor concentration, and IC50 values were calculated using a nonlinear least-square curve fitting program in Prism 5.
Background: Tetrazolium assays rely on reduction of a dye to a coloured formazan, in cell work by metabolically active cells.

In the next test the test system is HT29. Description: MTS assay (cytotoxicity), growth inhibition of HT29. As to conditions: Homo sapiens, HT-29, 120 h, Table 5, series III, 5 days, read-out: Growth Inhibition (IC50) HT29. The method, then:
as §1

In test [1] the test system is HSP90 client protein Her2 in SKBR-3 cells. Nature of the test: Her-2 degradation assay (Her-2 ELISA) in SKBr-3 cells. The settings on record: Homo sapiens, SK-BR-3, Table 5, series III, 18 hours. The method, then:
Most of the compounds synthesized were evaluated for their ability to induce degradation of the HSP90 client protein Her2 in SKBR-3 cells. Selected compounds were evaluated in a fluorescence polarization (FP) assay for their affinity to HSP90.
SKBr-3 cells grown in McCoy's 5a Medium supplemented with 10% fetal bovine serum (FBS) were plated into 12-well plates at 50% confluency. Increasing concentrations of inhibitors were added 24 hours later (cells are 65-70% confluent) and incubated overnight for 18 hours. The wells were washed with 2 ml of phosphate buffered saline (PBS), and 50 ul of trypsin was added to each well. After trypsinization was complete, 150 ul of FBS was added to each well. Then 200 ul of cells were transferred to 96-well plates and plates were centrifuged at 1200 rpm for 2 minutes using a tabletop centrifuge. The cells were washed once with 250 ul PBS before being lysed with 100 ul of 50 mM Tris (pH 7.4), 0.1% NP-40 lysis buffer. Protein concentrations of clarified lysates were determined using the BCA Assay (Calbiochem) according to the manufacturer's instructions. 2 ug of each lysate was analyzed in the human sp 185 Her-2 ELISA (Bender Medsystems) according to the manufacturer's instructions. ELISA plates were read at 450 nm using a multiwell plate spectrophotometer. Background was determined by measuring the Abs 450 nm of wells with no lysate added. The background value was subtracted from all values. Absorbance 450 nm values for each inhibitor were plotted against the log 10 inhibitor concentration, and IC50 values were calculated using a nonlinear least-square curve fitting program in Prism 5.

The subject of a further test is BT474. Nature of the test: MTS assay (cytotoxicity), growth inhibition of BT474. As to conditions: Homo sapiens, BT-474, 120 h, Table 5, series III, 5 days, read-out: Growth Inhibition (IC50) BT474. On the procedure: as §1
Another test relates to MCF-7. Description: MTS assay (cytotoxicity), growth inhibition of MCF-7. The settings on record: Homo sapiens, MCF7, 120 h, Table 5, series III, 5 days, read-out: Growth Inhibition (IC50) MCF-7. On the procedure:
as §1

As to `CCN(CC)CCNC(=O)c1c(C)[nH]c(/C=C2\C(=O)N(Cc3ncc(C)c(OC)c3C)c3nc(N)nc(Cl)c32)c1C` [III-102, (Z)-5-((2-Amino-4-chloro-7-((4-methoxy-3,5-dimethylpyridin-2-yl)methyl)-6-oxo-6,7-dihydro-5H-pyrrolo[2,3-d]pyrimidin-5-ylidene)methyl)-N-(2-(diethylamino)ethyl)-2,4-dimethyl-1H-pyrrole-3-carboxamide], the IC50 in the test with SKBR-3 came out at 10 nM; in the test with HT29, 30 nM; in test [1], 40 nM; with BT474, 70 nM; with MCF-7 it was 21300 nM.

With `COc1c(C)cnc(CN2C(=O)/C(=C\c3cc(C(=O)NCCN4CCC(O)CC4)c[nH]3)c3c(Cl)nc(N)nc32)c1C` [III-33, (Z)-5-((2-Amino-4-chloro-7-((4-methoxy-3,5-dimethylpyridin-2-yl)methyl)-6-oxo-6,7-dihydro-5H-pyrrolo[2,3-d]pyrimidin-5-ylidene)methyl)-N-(2-(4-hydroxypiperidin-1-yl)ethyl)-1H-pyrrole-3-carboxamide], the IC50 with SKBR-3 worked out at 0.6 nM; with HT29, 20 nM; in test [1], 40 nM; in the test with BT474, 3 nM; in the test on MCF-7, 110 nM.

Regarding `COc1c(C)cnc(CN2C(=O)/C(=C\c3cc(C(=O)N(CCO)CCO)c[nH]3)c3c(Cl)nc(N)nc32)c1C` [III-27, (Z)-5-((2-Amino-4-chloro-7-((4-methoxy-3,5-dimethylpyridin-2-yl)methyl)-6-oxo-6,7-dihydro-5H-pyrrolo[2,3-d]pyrimidin-5-ylidene)methyl)-N,N-bis(2-hydroxyethyl)-1H-pyrrole-3-carboxamide], the IC50 with SKBR-3 is 50 nM; in the test on HT29, 130 nM; in test [1], 130 nM; in the test with BT474 it was 80 nM; in the test on MCF-7, 330 nM.

Consider `COc1c(C)cnc(CN2C(=O)/C(=C\c3ncc[nH]3)c3c(Cl)nc(N)nc32)c1C` [III-3, 2-Amino-4-chloro-5-[1-(1H-imidazol-2-yl)-meth-(Z)-ylidene]-7-(4-methoxy-3,5-dimethyl-pyridin-2-ylmethyl)-5,7-dihydro-pyrrolo[2,3-d]pyrimidin-6-one], for which the IC50 in the test on SKBR-3 was 40 nM; with HT29 it was 70 nM; in test [1] it was 90 nM; in the test with BT474, 60 nM; with MCF-7 it was 100 nM.

As to `COc1c(C)cnc(CN2C(=O)/C(=C\c3cc(C(=O)NCCO)c[nH]3)c3c(Cl)nc(N)nc32)c1C` [III-18, (Z)-5-((2-Amino-4-chloro-7-((4-methoxy-3,5-dimethylpyridin-2-yl)methyl)-6-oxo-6,7-dihydro-5H-pyrrolo[2,3-d]pyrimidin-5-ylidene)methyl)-N-(2-hydroxyethyl)-1H-pyrrole-3-carboxamide], the 50% inhibitory concentration (IC50) was 30 nM with SKBR-3; 110 nM in the test with HT29; 360 nM in test [1]; 30 nM in the test with BT474; over 500 nM in the test on MCF-7.

For `COc1c(C)cnc(CN2C(=O)/C(=C\c3cc(C(=O)NCCCN4CCCC4)c[nH]3)c3c(Cl)nc(N)nc32)c1C` [III-28, (Z)-5-((2-Amino-4-chloro-7-((4-methoxy-3,5-dimethylpyridin-2-yl)methyl)-6-oxo-6,7-dihydro-5H-pyrrolo[2,3-d]pyrimidin-5-ylidene)methyl)-N-(3-(pyrrolidin-1-yl)propyl)-1H-pyrrole-3-carboxamide], the IC50 in the test with SKBR-3 is 40 nM; in the test on HT29, 50 nM; in test [1], 110 nM; in the test on BT474, 20 nM; in the test on MCF-7, 890 nM.

Consider `CCN(CC)CCNC(=O)c1c[nH]c(/C=C2\C(=O)N(Cc3cc(C)n(C)n3)c3nc(N)nc(Cl)c32)c1` [III-59, (Z)-5-((2-Amino-4-chloro-7-((1,5-dimethyl-1H-pyrazol-3-yl)methyl)-6-oxo-6,7-dihydro-5H-pyrrolo[2,3-d]pyrimidin-5-ylidene)methyl)-N-(2-(diethylamino)ethyl)-1H-pyrrole-3-carboxamide], for which the IC50 with SKBR-3 came out at 60 nM; in the test on HT29, 320 nM; in test [1] it was 100 nM; with BT474 it was 160 nM; with MCF-7, 1700 nM.
